Earlier results as cited in patent US11554190B2, “Nanocarriers for the delivery of active ingredients” (President and Fellows of Harvard College, priority 2017, dated 2023).
Read-outs that look alike come from different tables or passages of the source.

Columns and labels:
Listeria on lettuce = settings: vaporized from 10% w/v hydrogen peroxide solution
[1] = tested on: Acinetobacter on surfaces; settings: peak hydrogen peroxide concentration 500-600 ppm
[2] = tested on: surface deposited influenza; settings: 90 ppm of vapor phase H2O2, similar times of treatment
bacteria = settings: same amount of time
pathogens on surfaces = settings: 5% w/v, wet approach

OO [hydrogen peroxide]
log reduction in concentration of Listeria on lettuce (Listeria on lettuce): 3 log
log reductions in the concentration of Acinetobacter on surfaces [1]: 4 log
log reductions of surface deposited influenza [2]: 5 log
log reduction (bacteria; aqueous solution at 5% concentration): 2.2 log
log reduction (bacteria; aqueous solution at 10% concentration): 3.5 log
effectiveness against pathogens on surfaces (pathogens on surfaces): ineffective
